Structures can show the parent of a compound that is named as a salt.
Legend:
IDO1 [1] = target: T1, IDO1 (Homo sapiens, UniProt P14902); test: Recombinant human IDO1 enzyme inhibition assay; type: biochemical; details: for ligand efficiency: LE=1.37*pKi/number of heavy atoms; for mode of inhibition: Lineweaver-Burk graphical analysis
HeLa cells = test: Cell viability; type: cell-based, human; details: up to concentrations of 100 μM
catalase = test: Catalase inhibition; type: biochemical; details: catalase IC50 relative to IDO1 IC50
human serum protein = test: Impact of human serum protein binding on inhibitory activity; type: in vitro ADME
IDO1 [2] = target: T1, IDO1; test: UV-Vis absorption spectroscopy of inhibitor binding to IDO1; details: 500 μM inhibitor; for effect of inhibitor on CO-bound ferrous IDO1: CO as surrogate for O2; for Soret band of deoxy ferrous IDO1 on inhibitor binding: without inhibitor 427 nm

T1 sequence (P14902 whole entry): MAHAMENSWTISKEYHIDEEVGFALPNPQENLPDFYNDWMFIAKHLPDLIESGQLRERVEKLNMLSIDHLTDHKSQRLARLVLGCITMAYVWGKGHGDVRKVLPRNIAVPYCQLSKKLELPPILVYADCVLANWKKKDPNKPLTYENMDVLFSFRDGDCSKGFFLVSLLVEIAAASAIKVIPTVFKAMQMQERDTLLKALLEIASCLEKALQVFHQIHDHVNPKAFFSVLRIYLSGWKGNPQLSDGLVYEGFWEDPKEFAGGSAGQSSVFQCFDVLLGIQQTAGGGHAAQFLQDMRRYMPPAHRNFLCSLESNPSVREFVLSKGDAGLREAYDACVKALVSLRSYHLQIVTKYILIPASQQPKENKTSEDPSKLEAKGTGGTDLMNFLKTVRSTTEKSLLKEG
catalase, sequence (P00432 2-527): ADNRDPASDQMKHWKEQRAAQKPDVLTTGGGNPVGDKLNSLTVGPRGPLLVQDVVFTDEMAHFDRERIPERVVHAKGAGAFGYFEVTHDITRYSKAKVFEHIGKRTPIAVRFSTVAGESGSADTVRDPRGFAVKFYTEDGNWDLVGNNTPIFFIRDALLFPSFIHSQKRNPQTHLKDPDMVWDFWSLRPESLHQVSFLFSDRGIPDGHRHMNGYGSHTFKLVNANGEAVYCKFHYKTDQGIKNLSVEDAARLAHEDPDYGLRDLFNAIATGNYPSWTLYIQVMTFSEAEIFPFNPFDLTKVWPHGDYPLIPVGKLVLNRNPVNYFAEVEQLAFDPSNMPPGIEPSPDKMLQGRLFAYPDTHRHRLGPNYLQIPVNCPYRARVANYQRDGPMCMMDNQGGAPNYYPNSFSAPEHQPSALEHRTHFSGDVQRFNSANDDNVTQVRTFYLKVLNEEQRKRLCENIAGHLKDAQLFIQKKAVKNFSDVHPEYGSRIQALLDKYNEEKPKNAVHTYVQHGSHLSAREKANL

Compound | reversibility of IDO1 inhibition (IDO1 [1]) | cell viability (cytotoxicity) (HeLa cells) | Catalase Fold (catalase) | impact of human serum protein binding on inhibitory activity (human serum protein) | effect of inhibitor on CO-bound ferrous IDO1 (IDO1 [2]) | Soret band of deoxy ferrous IDO1 on inhibitor binding (IDO1 [2]) | ligand efficiency (IDO1 [1]) | mode of inhibition (IDO1 [1]) | IC50 (IDO1 [1])
NNc1ccccc1 [Ph-NH-NH2, phenylhydrazine] | did not see any signs of irreversible inhibition |  |  |  |  |  |  |  | 
Cl.NOCc1ccc(I)cc1 [Compound 8, 4-(Iodobenzyl)hydroxylamine hydrochloride] | reversible | good cell viability | > 300 fold | substantial reduction in inhibitory activity | inhibitor binding partially prevents CO binding to the heme iron | 419–421 nm | 0.93 | uncompetitive | 
COc1ccc(OC)c(CON)c1.Cl [Compound 40, O-(2,5-Dimethoxybenzyl)hydroxylamine hydrochloride] |  |  |  |  | inhibitor binding partially prevents CO binding to the heme iron | 419–421 nm |  |  | 
NOCCc1ccccc1 [Compound 5, O-Phenethylhydroxylamine hydrochloride] |  |  |  |  |  |  |  |  | 20 µM
Cl.NOCc1cccc(Cl)c1 [Compound 9, O-(3-Chlorobenzyl)hydroxylamine hydrochloride] | reversible | good cell viability | > 320 fold | relatively unaffected |  |  | 0.93 | uncompetitive | 
NOCc1ccccc1 [Lead, O-benzylhydroxylamine] |  |  |  |  | inhibitor binding prevents CO binding to the heme iron | 419–421 nm |  |  | 
